Results: ChEMBL document CHEMBL4765314, “Rational design and biological evaluation of gemfibrozil modified Xenopus GLP-1 derivatives as long-acting hypoglycemic agents” (Eur J Med Chem, 2020)
Activity calls are given as the source filed them. The rule behind the calls is not given here. Starred links: 1 amine or outer side, 2 acyl side, 3 side chain; linkers in the order of their positions; H or OH if unused. Residues, ends and D or L forms follow the SMILES beside them. Groups on a side chain read outwards from the residue. *: point of attachment. X1 = Cc1ccc(C)c(OCCCC(C)(C)C(=O)OCC(=O)NCCCCCCCCCC(NC(=O)COC(=O)C(C)(C)CCCOc2cc(C)ccc2C)C(=O)*)c1; γGlu = O=C(O)[C@H](CCC(=O)[*:2])N[*:1]

Columns and labels:
[1] = target: Glucagon-like peptide 1 receptor (Homo sapiens, UniProt P43220); assay: Agonist activity at human GLP-1R expressed in HEK293 cells assessed as stimulation of cAMP accumulation incubated for 60 mins by HTRF assay; assay type: functional, cell-based
Sequence of Glucagon-like peptide 1 receptor (P43220 whole entry): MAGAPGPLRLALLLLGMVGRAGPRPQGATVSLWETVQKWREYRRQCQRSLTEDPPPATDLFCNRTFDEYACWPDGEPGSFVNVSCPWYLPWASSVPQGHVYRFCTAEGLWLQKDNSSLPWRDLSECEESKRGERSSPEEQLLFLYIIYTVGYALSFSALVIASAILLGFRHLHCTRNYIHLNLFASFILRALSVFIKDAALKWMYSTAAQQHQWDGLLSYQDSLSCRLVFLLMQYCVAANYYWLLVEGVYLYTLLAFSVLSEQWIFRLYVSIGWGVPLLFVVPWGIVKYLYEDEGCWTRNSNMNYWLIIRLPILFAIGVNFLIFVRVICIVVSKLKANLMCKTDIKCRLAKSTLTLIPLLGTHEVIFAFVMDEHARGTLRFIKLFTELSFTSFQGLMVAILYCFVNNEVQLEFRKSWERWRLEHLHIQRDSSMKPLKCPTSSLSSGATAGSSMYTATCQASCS

Mus musculus [2] = assay: Hypoglycemic activity in 12 hrs fasted ICR mouse assessed as reduction in blood glucose level at 25 nmol/kg, ip dosed 30 mins before glucose challenge measured up to 120 mins by OGTT method; assay type: functional, organism-based; settings: time 150.0 min
[3] = Stability in Sprague-Dawley rat plasma assessed as half life at 1000 ng/ml measured up to 48 hrs under shaking condition by LC-MS/MS analysis; assay type: ADME, cell-free
Albumin = Albumin (Homo sapiens, UniProt P02768); assay: Binding affinity to human serum albumin assessed as retention factor by HPAC method; assay type: ADME
Sequence of Albumin (P02768 whole entry): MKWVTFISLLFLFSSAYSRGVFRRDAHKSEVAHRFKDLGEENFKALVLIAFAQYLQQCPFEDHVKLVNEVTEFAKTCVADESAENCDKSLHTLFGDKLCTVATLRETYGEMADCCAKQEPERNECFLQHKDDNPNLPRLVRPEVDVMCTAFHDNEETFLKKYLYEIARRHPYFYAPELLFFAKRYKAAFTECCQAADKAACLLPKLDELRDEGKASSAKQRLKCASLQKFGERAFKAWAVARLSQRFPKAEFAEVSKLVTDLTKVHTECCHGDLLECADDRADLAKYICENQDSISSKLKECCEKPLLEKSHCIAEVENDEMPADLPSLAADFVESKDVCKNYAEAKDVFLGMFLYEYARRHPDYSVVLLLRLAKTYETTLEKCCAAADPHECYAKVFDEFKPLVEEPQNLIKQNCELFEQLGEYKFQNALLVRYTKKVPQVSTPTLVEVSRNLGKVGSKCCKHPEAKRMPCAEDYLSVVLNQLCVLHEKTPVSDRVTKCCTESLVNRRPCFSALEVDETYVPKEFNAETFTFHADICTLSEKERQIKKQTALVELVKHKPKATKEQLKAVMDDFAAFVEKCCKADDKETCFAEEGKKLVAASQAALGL

Mus musculus [4] = assay: Hypoglycemic activity in non-fasted db/db mouse assessed as duration of time during which decrease in blood glucose concentration is observed at 25 nmol/kg, sc by OGTT method; assay type: functional
[5] = Half life in Sprague-Dawley rat at 50 nmol/kg, sc measured up to 24 hrs by LC-MS/MS analysis; assay type: ADME, organism-based; settings: in vivo
[6] = Tmax in Sprague-Dawley rat at 50 nmol/kg, sc measured up to 24 hrs by LC-MS/MS analysis; assay type: ADME, organism-based; settings: in vivo
Mus musculus [7] = assay: Hypoglycemic activity in db/db mouse assessed as decrease in glucose excursion at 25 nmol/kg, ip dosed 30 mins before glucose challenge and measured up to 180 mins by OGTT method; assay type: functional, organism-based; settings: time 210.0 min
Mus musculus [8] = assay: Hypoglycemic activity in db/db mouse assessed as improvement in glucose tolerance at 25 nmol/kg, ip dosed 30 mins before glucose challenge and measured up to 180 mins by OGTT method; assay type: functional, organism-based; settings: time 210.0 min
Mus musculus [9] = assay: Insulinotropic activity in db/db mouse assessed as improvement in plasma insulin level at 25 nmol/kg, ip dosed 30 mins before glucose challenge and measured up to 60 mins by ELISA; assay type: functional, organism-based; settings: time 90.0 min
Mus musculus [10] = assay: Hypoglycemic activity in non-fasted sc dosed db/db mouse assessed as reduction in blood glucose treated 30 mins before glucose challenge and measured up to 48 hrs by OGTT method; assay type: functional, organism-based; settings: dose 25-100 nmol/kg, time min <=2910
Mus musculus [11] = assay: Anorectic activity in non-fasted sc dosed db/db mouse assessed as reduction in food intake treated 30 mins before glucose challenge and measured up to 48 hrs; assay type: functional, organism-based; settings: time min <=2910
Mus musculus [12] = assay: Hypoglycemic activity in 16 hrs fasted db/db mouse assessed as reduction in blood glucose level at 25 nmol/kg, ip treated 30 mins before glucose challenge and measured at 0 to 12 hrs by multiple OGTT; assay type: functional, organism-based; settings: time 750.0 min
Mus musculus [13] = assay: Gastric emptying in 6 hrs fasted ICR mouse assessed as reduction in blood paracetamol concentration at 25 nmol/kg, ip dosed 30 mins before paracetamol dosing measured up to 60 mins by LC-MS/MS analysis; assay type: functional, organism-based; settings: time 90.0 min
[14] = Inhibition of solid-phase gastric emptying in 12 hrs fasted ICR mouse assessed reduction in gastric emptying rate at 25 nmol/kg, ip allowed for food intake 1 hrs and measured after 4 hrs […]; assay type: functional; parameters: scale not given: the % may be the effect or the level left
[15] = Hepatotoxicity in ICR mouse assessed as effect on aspartate aminotransferase level at 1000 nmol/kg, sc administered once daily for 2 weeks; assay type: toxicity, organism-based; settings: in vivo, 336 h
[16] = Hepatotoxicity in ICR mouse assessed as effect on alanine aminotransferase level at 1000 nmol/kg, sc administered once daily for 2 weeks; assay type: toxicity, organism-based; settings: in vivo, 336 h
[17] = Renal toxicity in ICR mouse assessed as effect on blood urea nitrogen level at 1000 nmol/kg, sc administered once daily for 2 weeks; assay type: organism-based; settings: in vivo, 336 h
[18] = Renal toxicity in ICR mouse assessed as effect on serum creatinine level at 1000 nmol/kg, sc administered once daily for 2 weeks; assay type: organism-based; settings: in vivo, 336 h
Mus musculus [19] = assay: Reduction in body weight in C57BL/6 mouse model of diet induced obesity at 25 nmol/kg, sc administered once daily for 21 days relative to control; assay type: functional; parameters: scale not given: the % may be the effect or the level left; settings: time 21 day
Mus musculus [20] = assay: Anorectic activity in C57BL/6 mouse model of diet induced obesity assessed as reduction in food intake at 25 nmol/kg, sc administered once daily for 21 days relative to control; assay type: functional, organism-based; settings: time 21.0 day
Mus musculus [21] = assay: Reduction in body fat content in C57BL/6 mouse model of high-fat diet induced obesity at 25 nmol/kg, sc administered once daily for 21 days relative to control; assay type: functional; parameters: scale not given: the % may be the effect or the level left; settings: time 21 day
Mus musculus [22] = assay: Reduction in serum triglyceride in C57BL/6 mouse model of high-fat diet induced obesity at 25 nmol/kg, sc administered once daily for 21 days; assay type: functional, organism-based; settings: time 21.0 day
Mus musculus [23] = assay: Reduction in serum total cholesterol in C57BL/6 mouse model of high-fat diet induced obesity at 25 nmol/kg, sc administered once daily for 21 days; assay type: functional, organism-based; settings: time 21.0 day
Mus musculus [24] = assay: Increase in serum HDL level in C57BL/6 mouse model of high-fat diet induced obesity at 25 nmol/kg, sc administered once daily for 21 days; assay type: functional, organism-based; settings: time 21.0 day
Mus musculus [25] = assay: Reduction in serum LDL level in C57BL/6 mouse model of high-fat diet induced obesity at 25 nmol/kg, sc administered once daily for 21 days; assay type: functional, organism-based; settings: time 21.0 day
Mus musculus [26] = assay: Effect in normal chow diet fed C57BL/6 mouse assessed as reduction in body weight increase at 25 nmol/kg, sc administered once daily for 21 days (reference value: 10.8%); assay type: functional; parameters: scale not given: the % may be the effect or the level left; settings: time 21 day
Mus musculus [27] = assay: Anorectic effect in normal chow diet fed C57BL/6 mouse assessed as reduction in food intake at 25 nmol/kg, sc administered once daily for 21 days; assay type: functional, organism-based; settings: time 21.0 day
Mus musculus [28] = assay: Inhibition of fat mass gain in normal chow diet fed C57BL/6 mouse at 25 nmol/kg, sc administered once daily for 21 days; assay type: functional, organism-based; settings: time 21.0 day
Mus musculus [29] = assay: Hypoglycemic activity in normal chow diet fed C57BL/6 mouse assessed as fasting blood glucose at 25 nmol/kg, sc administered once daily for 21 days; assay type: functional, organism-based; settings: time 21.0 day
Mus musculus [30] = assay: Improvement in glucose tolerance in standard chow diet fed C57BL/6 mouse at 25 nmol/kg, sc administered once daily for 21 days; assay type: functional, organism-based; settings: time 21.0 day
Mus musculus [31] = assay: Reduction in body weight gain in db/db mouse at 25 nmol/kg, sc administered once daily for 21 days; assay type: functional, organism-based; settings: time 21.0 day
Mus musculus [32] = assay: Improvement in fasted blood glucose level in db/db mouse at 25 nmol/kg, sc administered once daily for 21 days; assay type: functional, organism-based; settings: time 21.0 day
Mus musculus [33] = assay: Improvement in HbA1c level in db/db mouse at 25 nmol/kg, sc administered once daily for 21 days; assay type: functional, organism-based; settings: time 21.0 day
Mus musculus [34] = assay: Improvement in glucose tolerance in db/db mouse at 25 nmol/kg, sc administered once daily for 42 days by OGTT; assay type: functional, organism-based; settings: time 42.0 day
Mus musculus [35] = assay: Reduction in HbA1c level in db/db mouse at 25 nmol/kg, sc administered once daily for 42 days by OGTT; assay type: functional, organism-based; settings: time 42.0 day
Mus musculus [36] = assay: Hypoglycemic activity in non-fasted db/db […] mouse assessed as reduction in blood glucose level at 25 nmol/kg, ip dosed 30 mins before glucose challenge measured up to 120 mins by OGTT method; assay type: functional, organism-based
Mus musculus [37] = assay: Hypoglycemic activity in non-fasted db/db […] mouse assessed as increase in duration of time under normoglycemic state at 25 nmol/kg, sc by OGTT method relative to liraglutide; assay type: functional, organism-based
Mus musculus [38] = assay: Improvement in glucose tolerance in db/db mouse assessed as time for superior hypoglycemic effect by measuring glucose AUC at 25 nmol/kg, sc administered once daily for 42 days by OGTT; assay type: functional; settings: time 42 day
[39] = Hepatotoxicity in ICR mouse assessed as effect on aspartate aminotransferase level at 100 nmol/kg, sc administered once daily for 2 weeks; assay type: toxicity, organism-based; settings: in vivo, 336 h
[40] = Hepatotoxicity in ICR mouse assessed as effect on alanine aminotransferase level at 100 nmol/kg, sc administered once daily for 2 weeks; assay type: toxicity, organism-based; settings: in vivo, 336 h
[41] = Renal toxicity in ICR mouse assessed as effect on blood urea nitrogen level at 100 nmol/kg, sc administered once daily for 2 weeks; assay type: organism-based; settings: in vivo, 336 h
[42] = Renal toxicity in ICR mouse assessed as effect on serum creatinine level at 100 nmol/kg, sc administered once daily for 2 weeks; assay type: organism-based; settings: in vivo, 336 h

## CC[C@H](C)[C@H](NC(=O)[C@H](CC(C)C)NC(=O)[C@H](Cc1c[nH]c2ccccc12)NC(=O)[C@H](CCC(=O)O)NC(=O)[C@@H](NC(=O)[C@H](Cc1ccccc1)NC(=O)[C@H](CCC(=O)O)NC(=O)[C@H](CCCCNC(=O)CC[C@H](NC(=O)C(CCCCCCCCCNC(=O)COC(=O)C(C)(C)CCCOc1cc(C)ccc1C)NC(=O)COC(=O)C(C)(C)CCCOc1cc(C)ccc1C)C(=O)O)NC(=O)[C@H](C)NC(=O)[C@H](C)NC(=O)[C@H](CCC(=O)O)NC(=O)[C@H](CCC(=O)O)NC(=O)[C@H](CCC(=O)O)NC(=O)[C@H](CC(C)C)NC(=O)[C@H](Cc1ccc(O)cc1)NC(=O)[C@H](CCC(=O)O)NC(=O)[C@@H](NC(=O)[C@@H](NC(=O)[C@H](CC(=O)O)NC(=O)[C@H](CC(N)=O)NC(=O)[C@@H](NC(=O)[C@H](Cc1ccc(O)cc1)NC(=O)[C@@H](NC(=O)CNC(=O)[C@H](CCC(=O)O)NC(=O)CNC(=O)[C@@H](N)Cc1cnc[nH]1)[C@@H](C)O)[C@@H](C)O)C(C)C)[C@@H](C)O)[C@@H](C)CC)C(=O)N[C@@H](CCCCN)C(=O)NCC(=O)N[C@@H](CCCCN)C(=O)N1CCC[C@H]1C(=O)N[C@@H](CO)C(=O)N[C@@H](CO)C(=O)NCC(=O)N[C@@H](C)C(=O)N1CCC[C@H]1C(=O)N1CCC[C@H]1C(=O)N1CCC[C@H]1C(=O)N[C@@H](CO)C(=O)O (stereo partly drawn) (H-HGEGTYTNDVTEYLEEEAAK([γGlu-X1])EFIEWLIKGKPSSGAPPPS-OH)
[1]
  EC50: 0.17 nM
Mus musculus [2]
  Activity: Active
[3]
  half-life at 1000 ng/ml: 37.6 h
Albumin
  K: 13.3
Mus musculus [4]
  Time: 24 h
[5]
  half-life: 7 h
[6]
  Tmax: 4 h
Mus musculus [7]
  Activity: Active
Mus musculus [8]
  Activity: Active
Mus musculus [9]
  Activity: Active
Mus musculus [10]
  Activity: Dose-dependent effect
Mus musculus [11]
  Activity: Dose-dependent effect
Mus musculus [12]
  Activity: Active
Mus musculus [13]
  Activity: Active
[14]
  Activity: 48.3%
[15]
  Activity: Non-Toxic
[16]
  Activity: Non-Toxic
[17]
  Activity: Non-Toxic
[18]
  Activity: Non-Toxic
Mus musculus [19]
  Activity: 15.4%
Mus musculus [20]
  Activity: Active
Mus musculus [21]
  Activity: 29.8%
Mus musculus [22]
  Activity: Active
Mus musculus [23]
  Activity: Active
Mus musculus [24]
  Activity: Active
Mus musculus [25]
  Activity: Active
Mus musculus [26]
  Activity: 4.5%
Mus musculus [27]
  Activity: Active
Mus musculus [28]
  Activity: Active
Mus musculus [29]
  Activity: inactive
Mus musculus [30]
  Activity: inactive
Mus musculus [31]
  Activity: Active
Mus musculus [32]
  Activity: Active
Mus musculus [33]
  Activity: Active
Mus musculus [34]
  Activity: Active
Mus musculus [35]
  Activity: Active
Mus musculus [36]
  Activity: Active
Mus musculus [37]
  Activity: Active
Mus musculus [38]
  Time: 84 days

## SEMAGLUTIDE
[39]
  Activity: Non-Toxic
[40]
  Activity: Non-Toxic
[41]
  Activity: Non-Toxic
[42]
  Activity: Non-Toxic
